Assays:
[1] = system: Staphylococcus strains including MRSA; assay: antibacterial activity screening, results stated in words; type: cell-based, Staphylococcus aureus; conditions: for antimicrobial activity, in words: Example 2, all microorganisms tested
Description: However, the N-alkylthio substituent is required, since reduction to the N—H analogue completely destroys the biological activity. […]
(§1) Of particular interest is the ability of these compounds to retain their effectiveness against penicillin-resistant strains of Staphylococcus aureus, a dangerous hospital-borne pathogen which is becoming difficult to treat with conventional antibiotic therapy. The lactams were screened for antibacterial activity by disk diffusion on agar plates, and the resulting zones of bacterial growth inhibition measured (see Table 3; each lactam is designated by Figure number).
With the lactam of FIG. 6A serving as a lead structure, other C4-unsaturated derivatives (FIGS. 6B-6E) and C4-saturated analogues (FIGS. 6F-6H), were examined all of which also have activity against Staphylococcus strains including MRSA.
(§2) Scheme I summarizes the synthesis of ester compounds 4. 4-Carboxy benzaldehyde (1) is coupled with the appropriate alcohol using DCC/DMAP, followed by reaction with p-anisidine, to give imines 2. Staudinger coupling of methoxyacetyl chloride with imine 2 gives N-aryl protected β-lactam 3. N-Dearylation of β-lactam 3 with ceric ammonium nitrate and methylthiolation with N-(methylthio)phthalimide affords N-methylthio β-lactams 4. These compounds are tested for antibacterial activity by the Kirby-Bauer method of disc diffusion on agar plates. [drawing 7]

MRSA USF655 = assay: Kirby-Bauer agar disk diffusion; type: cell-based, Staphylococcus aureus; conditions: for zone of growth inhibition, average diameter: Table 3, 6-mm disks, 20 μg test compound, 24 hours; for The Zone of Inhibition: Table 6, 20 μg disk loading
Experimental: (§3) In this study, a selection of N-methylthio-substituted β-lactams are examined for antimicrobial activity by the Kirby-Bauer disk diffusion method on agar plates. A variety of common Gram-positive and Gram-negative bacteria are tested, including clinical isolates of methicillin-resistant Staphylococcus aureus (MRSA).
(§4) Compound susceptibility measurements are obtained from agar disk diffusion experiments using 6-mm air-dried disks impregnated with 20 μg of the test compound. The values correspond to the average diameters in mm (triplicate experiments) for the zone of growth inhibition observed after 24 h. Staphylococcus aureus (ATCC 25923) and β-lactamase-producing strains of methicillin-resistant Staphylococcus aureus (labeled as MRSA USF652-659) are obtained from Lakeland Regional Medical Center, Lakeland, Fla. Staphylococcus epidermidis, Staphylococcus simulans, Staphylococcus simulans, and Microcossus luteus are clinical isolates from University of South Florida Medical Clinic. Nieserria gonnorhoeae (β-lactamase positive) is obtained from the Tampa Branch State Laboratory. PenG is penicillin G (potassium salt). Table 1 provides the zones of growth inhibition that are observed after 24 hours using the lactams of FIGS. 1A-1I (designated A-I, respectively).
as §1
(§5) Table 3: Growth inhibition zones obtained from agar disk diffusion experiments using 6-mm air-dried disks impregnated with 20 μg of the test compound. The values correspond to the average diameters in mm for the zone of growth inhibition observed after 24 hours. Staphylococcus aureus and β-lactamase-producing strains of methicillin-resistant Staphylococcus aureus (labeled MRSA USF652-659) are obtained from a clinical testing laboratory at Lakeland Regional Medical Center, Lakeland, Fla.
(§6) Those compounds were tested for bioactivity using the Kirby-Bauer test on agar plates.
(§7) Biological activity is enhanced against β-lactamase producing strains of methicillin-resistant Staphylococcus aureus (MRSA). With the lactam shown in FIG. 11A serving as a lead structure, a series of other C-4 substituted derivatives (FIGS. 11B-11I) were investigated herein. Table 5 lists microbiological data for β-lactams from Kirby-Bauer Disc Diffusion Test Results (with each lactam identified by Figure number).
as §2

MRSA USF657 = assay: Kirby-Bauer agar disk diffusion; type: cell-based, Staphylococcus aureus; conditions: for zone of growth inhibition, average diameter: Table 3, 6-mm disks, 20 μg test compound, 24 hours; for The Zone of Inhibition: Table 6, 20 μg disk loading
Experimental: as §3, §4, §1, §5, §6, §7, §2

MRSA USF656 = assay: Kirby-Bauer agar disk diffusion; type: cell-based, Staphylococcus aureus; conditions: for zone of growth inhibition, average diameter: Table 3, 6-mm disks, 20 μg test compound, 24 hours; for The Zone of Inhibition: Table 6, 20 μg disk loading
Experimental: as §3, §4, §1, §5, §6, §7, §2

MRSA USF652 = assay: Kirby-Bauer agar disk diffusion; type: cell-based, Staphylococcus aureus; conditions: for zone of growth inhibition, average diameter: Table 3, 6-mm disks, 20 μg test compound, 24 hours; for The Zone of Inhibition: Table 6, 20 μg disk loading
Experimental: as §3, §4, §1, §5, §6, §7, §2

MRSA USF654 = assay: Kirby-Bauer agar disk diffusion; type: cell-based, Staphylococcus aureus; conditions: for zone of growth inhibition, average diameter: Table 3, 6-mm disks, 20 μg test compound, 24 hours; for The Zone of Inhibition: Table 6, 20 μg disk loading
Experimental: as §3, §4, §1, §5, §6, §7, §2

MRSA USF658 = assay: Kirby-Bauer agar disk diffusion; type: cell-based, Staphylococcus aureus; conditions: for zone of growth inhibition, average diameter: Table 3, 6-mm disks, 20 μg test compound, 24 hours; for The Zone of Inhibition: Table 6, 20 μg disk loading
Experimental: as §3, §4, §1, §5, §6, §7, §2

MRSA USF653 = assay: Kirby-Bauer agar disk diffusion; type: cell-based, Staphylococcus aureus; conditions: for zone of growth inhibition, average diameter: Table 3, 6-mm disks, 20 μg test compound, 24 hours; for The Zone of Inhibition: Table 6, 20 μg disk loading
Experimental: as §3, §4, §1, §5, §6, §7, §2

MRSA USF659 = assay: Kirby-Bauer agar disk diffusion; type: cell-based, Staphylococcus aureus; conditions: for zone of growth inhibition, average diameter: Table 3, 6-mm disks, 20 μg test compound, 24 hours; for The Zone of Inhibition: Table 6, 20 μg disk loading
Experimental: as §3, §4, §1, §5, §6, §7, §2

S. simulans (ATCC 11631) = assay: Kirby-Bauer agar disk diffusion; type: cell-based, Staphylococcus simulans; conditions: Table 3; 6-mm disks, 20 μg test compound, 24 hours
Experimental: as §3, §4, §1, §5

[2] = system: S. saprophyticus (ATCC 3552); assay: Kirby-Bauer agar disk diffusion; type: cell-based, Staphylococcus saprophyticus; conditions: Table 3; 6-mm disks, 20 μg test compound, 24 hours
Experimental: as §3, §4, §1, §5

[3] = system: Staphylococcus epidermidis; assay: Kirby-Bauer agar disk diffusion; type: cell-based; conditions: Table 3; 6-mm disks, 20 μg test compound, 24 hours
Experimental: as §3, §4, §1, §5

Micrococcus luteus = assay: Kirby-Bauer agar disk diffusion; type: cell-based; conditions: Table 3; 6-mm disks, 20 μg test compound, 24 hours
Experimental: as §3, §4, §1, §5

[4] = system: Staphylococcus aureus (ATCC 25923); assay: Kirby-Bauer agar disk diffusion; type: cell-based; conditions: Table 3; 6-mm disks, 20 μg test compound, 24 hours
Experimental: as §3, §4, §1, §5

[5] = Example 6, MRSA strains of Table 6

SMILES | antibacterial activity, in words ([1]; Example 3 SAR) | The Zone of Inhibition (MRSA USF655) [mm] | The Zone of Inhibition (MRSA USF657) [mm] | The Zone of Inhibition (MRSA USF656) [mm] | The Zone of Inhibition (MRSA USF652) [mm] | The Zone of Inhibition (MRSA USF654) [mm] | The Zone of Inhibition (MRSA USF658) [mm] | The Zone of Inhibition (MRSA USF653) [mm] | The Zone of Inhibition (MRSA USF659) [mm] | antibacterial activity, in words [1, 5] | further results
CCCCCCCOC(=O)c1ccc(C2C(OC)C(=O)N2SC)cc1 (racemic) [FIG. 8D] | about half the activity of the pentyl analogues |  |  |  |  |  |  |  |  |  | 
COC1C(=O)N2SC(c3ccccc3)=C(I)C12 (centres unmarked) [FIG. 2D] |  |  |  |  |  |  |  |  |  |  | zone of growth inhibition, average diameter (MRSA USF655): 0 mm; zone of growth inhibition, average diameter (MRSA USF657): 0 mm; zone of growth inhibition, average diameter (MRSA USF656): 0 mm; zone of growth inhibition, average diameter (MRSA USF652): 0 mm; zone of growth inhibition, average diameter (MRSA USF654): 0 mm; zone of growth inhibition, average diameter (MRSA USF658): 0 mm; zone of growth inhibition, average diameter (MRSA USF653): 0 mm; zone of growth inhibition, average diameter (MRSA USF659): 0 mm; zone of growth inhibition, average diameter (S. simulans (ATCC 11631)): 0 mm; antimicrobial activity, in words [1]: no antimicrobial activity; zone of growth inhibition, average diameter [2]: 0 mm; zone of growth inhibition, average diameter [3]: 0 mm; zone of growth inhibition, average diameter (Micrococcus luteus): 0 mm; zone of growth inhibition, average diameter [4]: 0 mm
COC1C(=O)N(SC)C1C#Cc1ccccc1 (racemic) [FIG. 6A] | inhibits the in vitro growth |  |  |  |  |  |  |  |  |  | 
COC1C(=O)N(SC)C1C(C#Cc1ccccc1)OC(C)=O (mixture of isomers) [FIG. 3H] |  |  |  |  |  |  |  |  |  |  | zone of growth inhibition, average diameter (MRSA USF655): 0 mm; zone of growth inhibition, average diameter (MRSA USF657): 0 mm; zone of growth inhibition, average diameter (MRSA USF656): 0 mm; zone of growth inhibition, average diameter (MRSA USF652): 0 mm; zone of growth inhibition, average diameter (MRSA USF654): 0 mm; zone of growth inhibition, average diameter (MRSA USF658): 0 mm; zone of growth inhibition, average diameter (MRSA USF653): 0 mm; zone of growth inhibition, average diameter (MRSA USF659): 0 mm; zone of growth inhibition, average diameter (S. simulans (ATCC 11631)): 0 mm; antimicrobial activity, in words [1]: inactive; zone of growth inhibition, average diameter [2]: 0 mm; zone of growth inhibition, average diameter [3]: 0 mm; zone of growth inhibition, average diameter (Micrococcus luteus): 0 mm; zone of growth inhibition, average diameter [4]: 0 mm
CCCCCOC(=O)c1ccc(C2C(OC)C(=O)N2SC)cc1 (racemic) [4c] |  | 13 | 14 | 14 | 17 | 11 | 12 | 13 | 12 | about similar activity | 
COC1C(=O)N(SC)C1C(C#Cc1ccccc1)OC(C)=O (mixture of isomers) [FIG. 6I] | devoid of activity |  |  |  |  |  |  |  |  |  | 
COC1C(=O)N(SC)C1c1ccccc1Cl (racemic) [FIG. 7A] | most active analogue |  |  |  |  |  |  |  |  |  | 
CCCCCCCCCCOC(=O)c1ccc(C2C(OC)C(=O)N2SC)cc1 (racemic) [4e] |  | 0 | 0 | 0 | 0 | 0 | 0 | 0 | 0 | no activity | 
CCOC(=O)c1ccc(C2C(OC)C(=O)N2SC)cc1 (racemic) [4b] |  | 12 | 14 | 11 | 17 | 9 | 11 | 14 | 13 | about similar activity | 
